Source: patent US20240368135A1 (VERTEX PHARMACEUTICALS INCORPORATED, priority 2021, published 2024)
Where two headings read alike, the source gives them in different places.

Target: human NaV 1.8 (Homo sapiens, UniProt Q9Y5Y9)
Assay: E-VIPR assay detecting and measuring NaV inhibition properties
Assay type: cell-based
Settings: HEK cells expressing truncated human NaV 1.8
Procedure, shortened: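 Membrane potential was followed by coumarin/oxonol FRET during electrical field stimulation of matrigel-seeded HEK cells carrying truncated human NaV1.8 plus KIR2.1. Dosing used 11 points, 3-fold steps, top 300 nM final, 0.625% DMSO, with or without 25% human serum.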

[1] = no human serum, read-out: IC50 in the E-VIPR Assay
[2] = in the presence of human serum (compound numbers followed by *), read-out: IC50 in the E-VIPR Assay, performed in the presence of human serum

Sequence of human NaV 1.8 (Q9Y5Y9 126-399 limits assumed): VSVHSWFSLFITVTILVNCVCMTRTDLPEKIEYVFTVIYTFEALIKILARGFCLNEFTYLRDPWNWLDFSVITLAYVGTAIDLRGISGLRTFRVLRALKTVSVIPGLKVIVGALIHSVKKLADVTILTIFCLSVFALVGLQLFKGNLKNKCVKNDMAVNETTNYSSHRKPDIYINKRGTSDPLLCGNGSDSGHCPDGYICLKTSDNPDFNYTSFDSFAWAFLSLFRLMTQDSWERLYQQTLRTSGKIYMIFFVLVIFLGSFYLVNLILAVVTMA
Sequence of human NaV 1.8 (Q9Y5Y9 660-890 limits assumed): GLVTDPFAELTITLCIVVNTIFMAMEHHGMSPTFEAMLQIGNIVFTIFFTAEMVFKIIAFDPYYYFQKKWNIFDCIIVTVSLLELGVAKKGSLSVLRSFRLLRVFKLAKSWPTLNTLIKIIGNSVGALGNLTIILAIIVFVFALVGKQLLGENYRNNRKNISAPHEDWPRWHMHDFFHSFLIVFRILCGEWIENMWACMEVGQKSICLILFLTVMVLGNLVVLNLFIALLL
Sequence of human NaV 1.8 (Q9Y5Y9 1148-1722 limits assumed): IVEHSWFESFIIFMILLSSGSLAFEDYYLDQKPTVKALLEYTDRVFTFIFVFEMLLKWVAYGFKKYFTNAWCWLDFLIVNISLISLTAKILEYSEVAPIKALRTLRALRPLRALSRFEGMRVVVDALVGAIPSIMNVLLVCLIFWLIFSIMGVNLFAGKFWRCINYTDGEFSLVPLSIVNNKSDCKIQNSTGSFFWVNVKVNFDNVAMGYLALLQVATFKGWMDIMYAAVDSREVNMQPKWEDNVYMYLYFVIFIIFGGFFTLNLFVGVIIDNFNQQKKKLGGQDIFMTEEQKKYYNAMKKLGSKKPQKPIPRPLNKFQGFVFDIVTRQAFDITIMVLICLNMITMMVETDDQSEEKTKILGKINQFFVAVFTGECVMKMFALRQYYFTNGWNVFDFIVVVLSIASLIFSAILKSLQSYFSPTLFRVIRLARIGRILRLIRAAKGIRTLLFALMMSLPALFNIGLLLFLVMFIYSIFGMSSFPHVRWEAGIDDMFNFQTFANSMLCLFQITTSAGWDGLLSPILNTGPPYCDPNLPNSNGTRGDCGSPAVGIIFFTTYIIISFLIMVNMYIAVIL

| SMILES | IC50 [1] | IC50 [2] |
| --- | --- | --- |
| C[C@H]1[C@@H](c2ccc(F)c(F)c2OCC2COC2)[C@H](C(=O)Nc2ccc3cnnn3c2)O[C@@]1(C)C(F)(F)F [Compound 621, (2R,3S,4S,5R)-3-[3,4-difluoro-2-(oxetan-3-ylmethoxy)phenyl]-4,5-dimethyl-N-(triazolo[1,5-a]pyridin-6-yl)-5-(trifluoromethyl)tetrahydrofuran-2-carboxamide] | < 10 nM |  |
| Cc1nnn2ccc(NC(=O)[C@@H]3O[C@@](C)(C(F)(F)F)[C@@H](C)[C@H]3c3ccc(F)c(F)c3OCCO)cc12 [Compound 574, (2R,3S,4S,5R)-3-(3,4-difluoro-2-(2-hydroxyethoxy)phenyl)-4,5-dimethyl-N-(3-methyl-[1,2,3]triazolo[1,5-a]pyridin-5-yl)-5-(trifluoromethyl)tetrahydrofuran-2-carboxamide] | 10 to 100 nM |  |
| COc1c(C2C(C(=O)Nc3ccnc(C(O)C(C)O)c3)OC(C)(C(F)(F)F)C2C)ccc(F)c1C (single isomer, unassigned) [Compound 149] |  | 100 to 1000 nM |
| Cc1nn(CCO)cc1NC(=O)[C@H]1O[C@](C)(C(F)(F)F)[C@H](C)[C@@H]1c1ccc(F)c(F)c1OC(F)F (single isomer, unassigned) [Compound 75] | ≥ 1000 nM |  |
| COc1c(C2C(C(=O)Nc3ccnc(S(C)(=O)=O)c3)OC(C)(C(F)(F)F)C2C)ccc(F)c1F (single isomer, unassigned) [Compound 49, 3-(3,4-difluoro-2-methoxy-phenyl)-4,5-dimethyl-N-(2-methylsulfonyl-4-pyridyl)-5-(trifluoromethyl)tetrahydrofuran-2-carboxamide] |  | ≥ 1000 nM |
| Cc1nocc1NC(=O)[C@@H]1O[C@@](C)(C(F)(F)F)[C@@H](C)[C@H]1c1ccc(F)c(F)c1OCCO [Compound 558, (2R,3S,4S,5R)-3-(3,4-difluoro-2-(2-hydroxyethoxy)phenyl)-4,5-dimethyl-N-(3-methylisoxazol-4-yl)-5-(trifluoromethyl)tetrahydrofuran-2-carboxamide] | < 10 nM |  |
| COc1c([C@H]2[C@H](C(=O)Nc3cc(C[C@@H](O)CO)n(C)n3)O[C@@](C)(C(F)(F)F)[C@H]2C)ccc(F)c1F [Compound 335, (2R,3S,4S,5R)-3-(3,4-difluoro-2-methoxy-phenyl)-N-[5-[(2R)-2,3-dihydroxypropyl]-1-methyl-pyrazol-3-yl]-4,5-dimethyl-5-(trifluoromethyl)tetrahydrofuran-2-carboxamide] | ≥ 1000 nM |  |
| COc1c([C@H]2[C@H](C(=O)Nc3cncc(CO)c3)O[C@@](C)(C(F)(F)F)[C@H]2C)ccc(F)c1F [Compound 383, (2R,3S,4S,5R)-3-(3,4-difluoro-2-methoxyphenyl)-N-(5-(hydroxymethyl)pyridin-3-yl)-4,5-dimethyl-5-(trifluoromethyl)tetrahydrofuran-2-carboxamide] | 10 to 100 nM |  |
| COc1c([C@H]2[C@H](C(=O)Nc3ccc4nc(C(=O)N5CCOCC5)cn4c3)O[C@@](C)(C(F)(F)F)[C@H]2C)ccc(F)c1F [Compound 259, (2R,3S,4S,5R)-3-(3,4-difluoro-2-methoxyphenyl)-4,5-dimethyl-N-(2-(morpholine-4-carbonyl)imidazo[1,2-a]pyridin-6-yl)-5-(trifluoromethyl)tetrahydrofuran-2-carboxamide] | 10 to 100 nM |  |
| Cc1cncc(NC(=O)C2OC(C)(C(F)(F)F)C(C)C2c2ccc(F)c(F)c2OC2CC(O)C2)c1 [Compound 665, (2R,3S,4S,5R)-3-(3,4-difluoro-2-((1S,3R)-3-hydroxycyclobutoxy)phenyl)-4,5-dimethyl-N-(5-methylpyridin-3-yl)-5-(trifluoromethyl)tetrahydrofuran-2-carboxamide] | 10 to 100 nM |  |
| CC(C)Oc1c(C2C(C(=O)Nc3cc(S(C)(=O)=O)ccn3)OC(C)(C(F)(F)F)C2C)ccc(F)c1F (centres unmarked) [Compound 115, 3-(3,4-difluoro-2-isopropoxy-phenyl)-4,5-dimethyl-N-(4-methylsulfonyl-2-pyridyl)-5-(trifluoromethyl)tetrahydrofuran-2-carboxamide] | ≥ 1000 nM |  |
| C[C@H]1[C@@H](c2ccc(F)c(F)c2OCCO)[C@H](C(=O)Nc2cnc(N3CCOCC3)nc2)O[C@@]1(C)C(F)(F)F [Compound 542, (2R,3S,4S,5R)-3-(3,4-difluoro-2-(2-hydroxyethoxy)phenyl)-4,5-dimethyl-N-(2-morpholinopyrimidin-5-yl)-5-(trifluoromethyl)tetrahydrofuran-2-carboxamide] | ≥ 1000 nM |  |
| C[C@H]1[C@@H](c2ccc(F)c(F)c2OC(F)F)[C@H](C(=O)Nc2ccnc(CCO)c2)O[C@@]1(C)C(F)(F)F (single isomer, unassigned) [Compound 458] | < 10 nM |  |
| CN=S(C)(=O)c1cc(NC(=O)C2OC(C)(C(F)(F)F)C(C)C2c2ccc(F)c(F)c2OC)ccn1 (single isomer, unassigned) [Compound 530, 3-(3,4-difluoro-2-methoxy-phenyl)-N-[2-(N,S-dimethylsulfonimidoyl)-4-pyridyl]-4,5-dimethyl-5-(trifluoromethyl)tetrahydrofuran-2-carboxamide] | < 10 nM |  |
| COc1c([C@H]2[C@H](C(=O)Nc3ccnc(NC(=O)CN(C)C)c3)O[C@@](C)(C(F)(F)F)[C@H]2C)ccc(F)c1F [Compound 472, (2R,3S,4S,5R)-3-(3,4-difluoro-2-methoxyphenyl)-N-(2-(2-(dimethylamino)acetamido)pyridin-4-yl)-4,5-dimethyl-5-(trifluoromethyl)tetrahydrofuran-2-carboxamide] | 10 to 100 nM |  |
| COC[C@@H](C)Oc1c([C@H]2[C@H](C(=O)Nc3ccnc(CO)c3)O[C@@](C)(C(F)(F)F)[C@H]2C)ccc(F)c1F [Compound 646, (2R,3S,4S,5R)-3-(3,4-difluoro-2-(((R)-1-methoxypropan-2-yl)oxy)phenyl)-N-(2-(hydroxymethyl)pyridin-4-yl)-4,5-dimethyl-5-(trifluoromethyl)tetrahydrofuran-2-carboxamide] | < 10 nM |  |
| COc1c([C@H]2[C@H](C(=O)Nc3ccc(CC4CCOCC4)nc3)O[C@@](C)(C(F)(F)F)[C@H]2C)ccc(F)c1F [Compound 404, (2R,3S,4S,5R)-3-(3,4-difluoro-2-methoxyphenyl)-4,5-dimethyl-N-(6-((tetrahydro-2H-pyran-4-yl)methyl)pyridin-3-yl)-5-(trifluoromethyl)-tetrahydrofuran-2-carboxamide] | 100 to 1000 nM |  |
| CN=S(C)(=O)c1cc(NC(=O)[C@@H]2O[C@@](C)(C(F)(F)F)[C@@H](C)[C@H]2c2ccc(F)c(F)c2OC)ccn1 (relative stereo) [Compound 528, rel-(2R,3S,4S,5R)-3-(3,4-difluoro-2-methoxyphenyl)-N-(2-(N,S-dimethylsulfonimidoyl)pyridin-4-yl)-4,5-dimethyl-5-(trifluoromethyl)tetrahydrofuran-2-carboxamide] | < 10 nM |  |
| COc1c([C@H]2[C@H](C(=O)Nc3ccnc(C[C@H]4COCCN4)c3)O[C@@](C)(C(F)(F)F)[C@H]2C)ccc(F)c1F [Compound 214, (2R,3S,4S,5R)-3-(3,4-difluoro-2-methoxyphenyl)-4,5-dimethyl-N-(2-(((S)-morpholin-3-yl)methyl)pyridin-4-yl)-5-(trifluoromethyl)tetrahydrofuran-2-carboxamide] | 10 to 100 nM |  |
| COc1ncc(NC(=O)[C@@H]2O[C@@](C)(C(F)(F)F)[C@@H](C)[C@H]2c2ccc(F)c(F)c2OCCO)cn1 [Compound 550, (2R,3S,4S,5R)-3-(3,4-difluoro-2-(2-hydroxyethoxy)phenyl)-N-(2-methoxypyrimidin-5-yl)-4,5-dimethyl-5-(trifluoromethyl)tetrahydrofuran-2-carboxamide] | 100 to 1000 nM |  |
| CCOc1c([C@H]2[C@H](C(=O)Nc3ccn4nnnc4c3)O[C@@](C)(C(F)(F)F)[C@H]2C)ccc(F)c1C (stereo in doubt) [Compound 123, rel-(2R,3S,4S,5R)-3-(2-ethoxy-4-fluoro-3-methylphenyl)-4,5-dimethyl-N-(tetrazolo[1,5-a]pyridin-7-yl)-5-(trifluoromethyl)tetrahydrofuran-2-carboxamide] | < 10 nM |  |
| COc1c([C@H]2[C@H](C(=O)Nc3ccn4c(=O)n(CCO)nc4c3)O[C@@](C)(C(F)(F)F)[C@H]2C)ccc(F)c1F [Compound 430, (2R,3S,4S,5R)-3-(3,4-difluoro-2-methoxy-phenyl)-N-[2-(2-hydroxyethyl)-3-oxo-[1,2,4]triazolo[4,3-a]pyridin-7-yl]-4,5-dimethyl-5-(trifluoromethyl)tetrahydrofuran-2-carboxamide] | 10 to 100 nM |  |
| Cc1cn(C)c(COc2c([C@H]3[C@H](C(=O)Nc4cccnc4)O[C@@](C)(C(F)(F)F)[C@H]3C)ccc(F)c2F)n1 [Compound 650, (2R,3S,4S,5R)-3-(2-((1,4-dimethyl-1H-imidazol-2-yl)methoxy)-3,4-difluorophenyl)-4,5-dimethyl-N-(pyridin-3-yl)-5-(trifluoromethyl)tetrahydrofuran-2-carboxamide] | 10 to 100 nM |  |
| COc1c([C@H]2[C@H](C(=O)Nc3ncc(O)cn3)O[C@@](C)(C(F)(F)F)[C@H]2C)ccc(F)c1F [Compound 444, (2R,3S,4S,5R)-3-(3,4-difluoro-2-methoxy-phenyl)-N-(5-hydroxypyrimidin-2-yl)-4,5-dimethyl-5-(trifluoromethyl)tetrahydrofuran-2-carboxamide] | 100 to 1000 nM |  |
| COc1c([C@H]2[C@H](C(=O)Nc3cnn(C4COC4)c3C)O[C@@](C)(C(F)(F)F)[C@H]2C)ccc(F)c1F (single isomer, unassigned) [Compound 331] | 10 to 100 nM |  |
| COc1c([C@H]2[C@H](C(=O)Nc3cc(CO)ncn3)O[C@@](C)(C(F)(F)F)[C@H]2C)ccc(F)c1F [Compound 246, (2R,3S,4S,5R)-3-(3,4-difluoro-2-methoxyphenyl)-N-(6-(hydroxymethyl)pyrimidin-4-yl)-4,5-dimethyl-5-(trifluoromethyl)tetrahydrofuran-2-carboxamide] | < 10 nM |  |
